What was measured:
[1] = biological target: T1, MMP-1 (Homo sapiens, UniProt P03956); assay: SensoLyte 520 fluorimetric selectivity assay, MMP-1; type: biochemical; conditions: agents tested at 25 nM or at 4 nM
T1 construct: purchased AnaSpec AS-55575-1
T1 sequence (P03956 100-269 limits assumed): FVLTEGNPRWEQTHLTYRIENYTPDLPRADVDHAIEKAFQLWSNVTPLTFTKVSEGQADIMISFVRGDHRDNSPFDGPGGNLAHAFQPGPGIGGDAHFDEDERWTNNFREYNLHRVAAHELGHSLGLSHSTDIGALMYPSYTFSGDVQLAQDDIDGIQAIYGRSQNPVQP
Procedure: (§1) FIG. 2. […] For each indicated enzyme, agents were tested at 25 nM or at 4 nM and percent inhibition was measured using the catalytic domains of the respective enzyme and the SensoLyte® 520 Fluorimetric Assay Kit (Anaspec).
(§2) Enzymatic assays to profile the inhibitory effects of all the compounds on hMMP-12, and against a panel of 5 closely related MMPs (MMP-1, MMP-3, MMP-9, MMP-13, and MMP-14) were performed using the SensoLyte® 520 Fluorimetric Assay Kit (AnaSpec) for each MMPs. Assay kit for MMP-12 Cat. #AS-71157, MMP-1 Cat. #AS-71150, MMP-3 Cat. #AS-71152, MMP-9 Cat. #AS-71155, MMP-13 Cat. #AS-71156, and MMP-14 Cat. #AS-72025. The assay was performed according to their protocols. Briefly, 10 ng of each MMPs were incubated on a black flat-bottom 96-well plate (Cat. #9502867) at RT for 15 minutes in absence or in presence of different concentration of each compound in a total volume of 50 μL. After 15 minutes, 50 μL of each substrate solution were added. The reagents were mixed together by shaking the plate gently for 30 sec. Immediately after the fluorescence was measured using the VICTOR X5 microplate reader (PerkinElmer) every 3 min for 60 min. All the measurement were performed in duplicates. The IC50 values were calculated from dose-response curves using GraphPad Prism 7.

[2] = Solubility in dosing formulation; type: physicochemical; conditions: 10% DMSO, 40% PEG400, 10% (2-hydroxypropyl)-Beta-cyclodextrin in PBS
Procedure: (§3) Compound 25 was administered i.p. (30 mg/kg) to 5 Balb-C mice. Retrorbital bleeding was used to collect blood samples at times 30 min, 1 h, 2 h, 4 h, 8 h, and 24 h and the samples analyzed for compound 25 plasma concentration via extraction followed by LC/MS and compared to a standard calibration curve prepared with purified agent. Compound 25 was soluble in 10% DMSO, 40% PEG400, and 10% (2-hydroxypropyl)-Beta-cyclodextrin in PBS. Mice weight varied between 22 g and 26 g, each receiving approximately 200 μL (weight adjusted to administer 30 mg/Kg of compound 25) of formulated agent. The experiments were conducted at the University of California San Diego in vivo pharmacology core facility, according to a UCSD Institutional Animal Care and Use Committee (IACUC) approved protocol.

[3] = biological target: T2, MMP-3 (Homo sapiens, UniProt P08254); assay: SensoLyte 520 fluorimetric selectivity assay, MMP-3; type: biochemical; conditions: agents tested at 25 nM or at 4 nM
T2 construct: purchased AnaSpec 72006
Procedure: as §1, §2

[4] = system: murine model of elastase-induced emphysema; assay: Murine model of elastase-induced emphysema, mean linear intercept analysis; type: in vivo, C57BL/6 mice; conditions: i.p. once daily for 7 days from day 2 after PPE, day 21
Procedure: C57BL/6 mice were purchased from Jackson Laboratories (Bar Harbor, Me.) and maintained in a pathogen-free vivarium at room temperature with 12-hour light/dark cycles. All mice were 6-8 weeks and both male and female mice were used for the experiment. All animal-use and euthanasia protocols were approved by the UC Riverside Institutional Animal Care and Use Committee (IACUC).
C57BL/6 mice were given a single intranasal instillation with 50 μl of saline or 0.9 U porcine pancreas elastase (Sigma-Aldrich, St. Louis, Mo.) diluted in phosphate buffered saline (IX PBS). Two days following the instillation, mice were treated with 200 μl of vehicle control, MMP-408, compound 25, or compound 26 via intraperitoneal injection. Mice were continually given treatment once a day for 7 consecutive days. Twenty-one days following the initial intranasal instillation, mice were sacrificed. Bronchoalveolar lavage fluid (BALF) was collected by making an incision in the trachea and inserting a cannula with syringe (BD Biosciences, CA), then washing with 1 mL of cold PBS three times. BALF was centrifuged at 1200 RPM for 5 minutes, then cell pellets were combined and resuspended in 200 μl of PBS to be used in cell counts and cell differential analysis. The lungs were isolated, slowly filled with 1 mL of 10% formalin then hung in formalin overnight for fixation. The following day, lungs were moved into 70% ethanol and stored at 4° C. until paraffin-embedding.
Mouse lungs were fixed in formalin and paraffin-embedded, then sectioned and stained in hematoxylin and eosin by the University of California Irvine Department of Pathology Experimental Tissue Resource Core Facility. The lungs were imaged on a Revolve light microscope (La Jolla, Calif.) at 10× magnification. MLI measurements were calculated using an established indirect method on ImageJ software. Briefly, alveolar walls/intersections were counted along a line of known length, then length was divided by the number of intersections to calculate MLI. This process was repeated for a total of five MLI measurements per image, with there being four images per mouse lung. The average MLI measurement for each lung was calculated and statistically analyzed using GraphPad Prism software (San Diego, Calif.).

[5] = biological target: T3, hMMP-12 (Homo sapiens, UniProt P39900); assay: SensoLyte 520 MMP-12 fluorimetric enzyme inhibition assay; type: biochemical; conditions: for IC50: catalytic domain, tested side by side
T3 construct: The catalytic domain (Gly106-Gly263) of human macrophage metalloelastase (hMMP-12); made in house; host or cells: E. coli BL21 Codon Plus (pET21 vector, NdeI/BamHI)

[6] = Preliminary pharmacokinetic study in mice; type: in vivo, Balb-C mice
Procedure: as §3

[7] = biological target: T4, MMP-9 (Homo sapiens, UniProt P14780); assay: SensoLyte 520 fluorimetric selectivity assay, MMP-9; type: biochemical; conditions: agents tested at 25 nM or at 4 nM
T4 construct: purchased AnaSpec AS-55576-1
Procedure: as §1, §2

[8] = biological target: T5, MMP-14 (Homo sapiens, UniProt P50281); assay: SensoLyte 520 fluorimetric selectivity assay, MMP-14; type: biochemical; conditions: agents tested at 25 nM or at 4 nM
T5 construct: purchased AnaSpec AS-72068
Procedure: as §1, §2

[9] = biological target: T6, MMP-13 (Homo sapiens, UniProt P45452); assay: SensoLyte 520 fluorimetric selectivity assay, MMP-13; type: biochemical; conditions: agents tested at 25 nM or at 4 nM
T6 construct: purchased AnaSpec AS-72257
Procedure: as §1, §2

[10] = 30 mg/kg intraperitoneally, mice

T2 sequence (P08254 100-272 limits assumed): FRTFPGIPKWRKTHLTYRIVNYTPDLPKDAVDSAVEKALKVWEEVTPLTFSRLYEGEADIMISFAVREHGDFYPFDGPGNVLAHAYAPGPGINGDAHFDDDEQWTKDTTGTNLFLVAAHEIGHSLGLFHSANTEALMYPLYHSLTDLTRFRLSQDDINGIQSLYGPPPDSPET
T3 sequence (P39900 106-263): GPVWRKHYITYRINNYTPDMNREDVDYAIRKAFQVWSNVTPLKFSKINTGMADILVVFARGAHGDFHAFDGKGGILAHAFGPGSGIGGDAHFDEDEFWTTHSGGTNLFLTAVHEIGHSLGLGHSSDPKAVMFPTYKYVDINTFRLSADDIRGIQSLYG
T4 sequence (P14780 107-444 limits assumed): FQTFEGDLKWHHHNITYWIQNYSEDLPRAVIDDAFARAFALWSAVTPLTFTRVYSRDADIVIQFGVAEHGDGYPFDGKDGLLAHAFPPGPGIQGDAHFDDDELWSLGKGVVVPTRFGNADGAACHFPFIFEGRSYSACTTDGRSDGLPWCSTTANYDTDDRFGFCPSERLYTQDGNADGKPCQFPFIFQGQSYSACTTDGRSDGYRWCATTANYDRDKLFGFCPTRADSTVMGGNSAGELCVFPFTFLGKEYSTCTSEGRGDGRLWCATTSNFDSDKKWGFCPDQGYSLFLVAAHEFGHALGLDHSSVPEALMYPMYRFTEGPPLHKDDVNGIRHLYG

Compound	inhibition of MMP-1 [1]	solubility in formulation [2]	inhibition of MMP-3 [3]	MLI measurements compared to saline (no PPE)-treated mice [4]	emphysema-like pathology compared to PPE+vehicle-treated mice [4]	mode of MMP-12 inhibition [5]	IC50 [5]	peak plasma drug concentration [6, 10]	peak plasma drug concentration (molar) [6, 10]	peak plasma concentration relative to in vitro IC90 ([6]; mouse, in vivo)	inhibition of MMP-9 [7]	inhibition of MMP-14 [8]	inhibition of MMP-13 [9]
COc1ccc(CC[C@@H](NC(=O)[C@H](CCCc2ccccc2)NC(=O)CN2CCOCC2)C(=O)N[C@H](Cc2ccc(C)cc2)C(=O)NO)cc1 [Compound 25]	did not display significant inhibition	soluble	appreciable inhibition	no significant differences	significant decrease	competitive inhibitors	~4 nM	~400 ng/mL	~580 nM	> 20 times	did not display significant inhibition	did not display significant inhibition	did not display significant inhibition
COc1ccc(CCC[C@H](NC(=O)CN2CCOCC2)C(=O)N[C@H](CCc2ccc(OC)cc2)C(=O)N[C@H](Cc2ccc(C)cc2)C(=O)NO)cc1 [Compound 26]	did not display significant inhibition		appreciable inhibition	no significant differences	significant decrease	competitive inhibitors	~4 nM				did not display significant inhibition	did not display significant inhibition	did not display significant inhibition
CNC(=O)[C@H](Cc1c[nH]c2ccccc12)NC(=O)[C@@H](CC(=O)NO)CC(C)C [GM6001, reference compound]			appreciable inhibition				~2.5 nM						
COC(=O)Nc1ccc2oc3cc(S(=O)(=O)N[C@H](C(=O)O)C(C)C)ccc3c2c1 [MMP408, reference compound]				no significant differences	significant decrease								

Reference: patent US11732007B2, “Therapeutic compounds and methods” (The Regents of the University of California, priority 2020, dated 2023)
